Measured values published in US20240101563A1, “NOVEL COMPOUNDS” (AC Immune SA, priority 2022, published 2024).
Where a name gives a salt, the structure may show the parent alone.

Assays:
[1] = system: NLRP3 inflammasome pathway; assay: NLRP3 inflammasome pathway activation assay, MSU stimulation, IL-1β HTRF; assay type: cell-based; details: Homo sapiens, 3 h, Table 7; PMA-differentiated, LPS-primed cells; MSU 200 μg/mL for 3 h; IL-1β release; read-out: IC50 Human monocyte-like cells MSU
Method: (§1) The following assays were used to determine the inhibitory activity of test compounds on the NLRP3 inflammasome pathway using common stimuli Nigericin (Invivogen) or monosodium urate crystals (MSU) (Invivogen).
(§2) Human monocyte-like cells were cultured in RPMI-1640 Glutamax medium supplemented with 10% heat inactivated FBS (Fetal Bovine Serum) and 50 U/mL penicillin-streptomycin (Life Technologies).
(§3) Human monocyte-like cells were seeded at 25000 per well in a 384-well plate and were differentiated overnight into macrophages with 10 ng/mL PMA (Phorbol Myristate Acetate). The following day, medium containing 10 ng/mL LPS (Lipopolysaccharide) was added. After 3 hours of LPS priming, concentrations of test compound in the range from […] were added 30 min prior to NLRP3 inflammasome pathway stimulation with Nigericin 3.75 μM or MSU 200 μg/mL for 3 h.
(§4) For IL-1p quantification, supernatants were analyzed using HTRF kit according to the manufacturer's instructions (Cisbio 62HIL1BPEH). Briefly, in a 384-well ProxiPlate™ microplate, 8 μl of sample was mixed, with 5 μl of Anti-IL1β Cryptate antibody (40×) and Anti-IL1β XL antibody (40×). Then, incubated overnight at RT. Reading was done using an EnVision Reader (PerkinElmer).
(§5) IC50 (concentration corresponding to 50% inhibition) were determined using GraphPad Prism 9.

[2] = system: NLRP3 inflammasome pathway; assay: NLRP3 inflammasome pathway activation assay, Nigericin stimulation, IL-1β HTRF; assay type: cell-based; details: Homo sapiens, 3 h, Table 7; PMA-differentiated, LPS-primed cells; Nigericin 3.75 μM for 3 h; IL-1β release; read-out: IC50 Human monocyte-like cells Nigericin
Method: as §1, §2, §3, §4, §5

`COc1ccc2c(n1)nc(-c1c(C)cc(C(F)(F)F)cc1O)n2C` [Example 23] gave an IC50 [1] of less than 100 nM and an IC50 [2] of 100 to 1000 nM.
For `Cc1cc(C(F)(F)F)cc(O)c1-c1nc2nc(N[C@H]3CCCC[C@@H]3O)ccc2n1C` (single isomer, unassigned) [Example 20, 2-(5-((2-hydroxycyclohexyl)amino)-1-methyl-1H-imidazo[4,5-b]pyridin-2-yl)-3-methyl-5-(trifluoromethyl)phenol], the IC50 [1] was 100 to 1000 nM and the IC50 [2] was greater than 1000 nM.
`CCn1c(-c2c(C)cc(C(F)(F)F)cc2O)nc2nc(OCCO)ccc21` [Example 32, 2-(1-ethyl-5-(2-hydroxyethoxy)-1H-imidazo[4,5-b]pyridin-2-yl)-3-methyl-5-(trifluoromethyl)phenol] was tested, and the IC50 [1] was less than 100 nM and the IC50 [2] was 100 to 1000 nM.
`COc1ccc2c(n1)nc(-c1c(C)cc(Cl)cc1O)n2C` [Example 29, 5-chloro-2-(5-methoxy-1-methyl-1H-imidazo[4,5-b]pyridin-2-yl)-3-methylphenol] was tested, and the IC50 [1] was less than 100 nM and the IC50 [2] was 100 to 1000 nM.
`CCn1c(-c2ccc(C(F)(F)F)cc2O)nc2nc(NC3CCN(C)C3)ccc21` (single isomer, unassigned) [Example 9, 2-(1-ethyl-5-((1-methylpyrrolidin-3-yl)amino)-1H-imidazo[4,5-b]pyridin-2-yl)-5-(trifluoromethyl)phenol] gave an IC50 [1] of less than 100 nM and an IC50 [2] of 100 to 1000 nM.
Work on `Cc1cc(C(F)(F)F)cc(O)c1-c1nc2nc(O[C@@H]3CCCN(C)C3)ccc2n1C` [Example 26, (R)-3-methyl-2-(1-methyl-5-((1-methylpiperidin-3-yl)oxy)-1H-imidazo[4,5-b]pyridin-2-yl)-5-(trifluoromethyl)phenol] yielded an IC50 [1] of less than 100 nM and an IC50 [2] of 100 to 1000 nM.
`Cc1cc(C(F)(F)F)cc(O)c1-c1nc2nc(N[C@@H]3CCC[C@@H](O)C3)ccc2n1C` (single isomer, unassigned) [Example 21, 2-(5-((3-hydroxycyclohexyl)amino)-1-methyl-1H-imidazo[4,5-b]pyridin-2-yl)-3-methyl-5-(trifluoromethyl)phenol] gave an IC50 [1] of 100 to 1000 nM.
For `Cc1cc(Cl)cc(O)c1-c1nc2nc(NC3CN(C)CC3(F)F)ccc2n1C` (stereo not shown) [Example 62, 5-chloro-2-(5-((4,4-difluoro-1-methylpyrrolidin-3-yl)amino)-1-methyl-1H-imidazo[4,5-b]pyridin-2-yl)-3-methylphenol HCl Salt], the IC50 [1] was 100 to 1000 nM.
`CNc1ccc2c(n1)nc(-c1c(C)cc(C(F)(F)F)cc1O)n2C` [Example 3, 3-methyl-2-(1-methyl-5-(methylamino)-1H-imidazo[4,5-b]pyridin-2-yl)-5-(trifluoromethyl) phenol] showed an IC50 [1] of 100 to 1000 nM.
For `CN1CC[C@@H](Oc2cnc3c(n2)nc(-c2c(O)cc(Cl)cc2F)n3C)C1` [Example 87, 5-chloro-3-fluoro-2-[1-methyl-5-[(3R)-1-methylpyrrolidin-3-yl]oxy-imidazo[4,5-b]pyrazin-2-yl]phenol], the IC50 [1] was less than 100 nM.
For `Cc1cc(C(F)(F)F)cc(O)c1-c1nc2nc(N(C)[C@@H]3CCN(C)C3)cnc2n1C` [Example 60, (R)-3-methyl-2-(1-methyl-5-(methyl(1-methylpyrrolidin-3-Yl)amino)-1H-imidazo[4,5-b]pyrazin-2-yl)-5-(trifluoromethyl)phenol formate Salt], the IC50 [1] was less than 100 nM.
`COc1ccc2c(n1)nc(-c1ccc(C(F)(F)F)cc1O)n2C(C)C` [Example 35, 2-(1-isopropyl-5-methoxy-1H-imidazo[4,5-b]pyridin-2-yl)-5-(trifluoromethyl)phenol] showed an IC50 [1] of 100 to 1000 nM.
For `Cc1cc(Cl)cc(O)c1-c1nc2nc(O[C@@H]3CCN(C)C3)cnc2n1C` [Example 58, (R)-5-chloro-3-methyl-2-(1-methyl-5-((1-methylpyrrolidin-3-yl)oxy)-1H-imidazo[4,5-b]pyrazin-2-yl)phenol formate Salt], the IC50 [1] was less than 100 nM.
Work on `Cc1cc(Cl)cc(O)c1-c1nc2nc(N3CCC(O)CC3)cnc2n1C` [Example 78, 1-[2-(4-chloro-2-hydroxy-6-methyl-phenyl)-1-methyl-imidazo[4,5-b]pyrazine-5-yl]piperidin-4-ol] yielded an IC50 [1] of less than 100 nM.
`Cc1cc(C(F)(F)F)cc(O)c1-c1nc2nc(N(C)C)c(CO)cc2n1C` [Example 67, 2-[5-(dimethylamino)-6-(hydroxymethyl)-1-methyl-imidazo[4,5-b]pyridin-2-yl]-3-methyl-5-(trifluoromethyl)phenol] was tested, and the IC50 [1] was less than 100 nM.
`Cc1cc(C(F)(F)F)cc(O)c1-c1nc2nc(N[C@@H]3CCN(C)C3)c(F)cc2n1C` [Example 46, (R)-2-(6-fluoro-1-methyl-5-((1-methylpyrrolidin-3-yl)amino)-1H-imidazo[4,5-b]pyridin-2-yl)-3-methyl-5-(trifluoromethyl)phenol] showed an IC50 [1] of less than 100 nM.
`Cc1cc(C(F)(F)F)cc(O)c1-c1nc2nc(N3CCN(C)CC3)cnc2n1C` [Example 68, 3-methyl-2-(1-methyl-5-(4-methylpiperazin-1-yl)-1H-imidazo[4,5-b]pyrazin-2-yl)-5-(trifluoromethyl)phenol] was tested, and the IC50 [1] was 100 to 1000 nM.
Work on `OCCNc1ccc2cn(-c3ccc(C(F)(F)F)cc3O)nc2n1` [Example 48, 2-(6-((2-hydroxyethyl)amino)-2H-pyrazolo[3,4-b]pyridin-2-yl)-5-(trifluoromethyl)phenol] yielded an IC50 [1] of 100 to 1000 nM.
In the case of `Cc1cc(F)cc(O)c1-c1nc2nc(N(C)[C@@H]3CCN(C)C3)cnc2n1C` [Example 74, (R)-5-fluoro-3-methyl-2-(1-methyl-5-(methyl(1-methylpyrrolidin-3-yl)amino)-1H-imidazo[4,5-b]pyrazin-2-yl)phenol], the IC50 [1] is reported as less than 100 nM.
`COc1ccc2c(n1)nc(-c1ccc(C(F)(F)F)cc1O)n2C` [Example 24, 2-(5-methoxy-1-methyl-1H-imidazo[4,5-b]pyridin-2-yl)-5-(trifluoromethyl)phenol] gave an IC50 [1] of 100 to 1000 nM and an IC50 [2] of less than 100 nM.
With `CN1CCC[C@@H](Oc2ccc3c(n2)nc(-c2ccc(C(F)(F)F)cc2O)n3C)C1` [Example 25, (R)-2-(1-methyl-5-((1-methylpiperidin-3-yl)oxy)-1H-imidazo[4,5-b]pyridin-2-yl)-5-(trifluoromethyl)phenol] the IC50 [1] was less than 100 nM and the IC50 [2] was 100 to 1000 nM.
`CCn1c(-c2c(C)cc(Cl)cc2O)nc2nc(OC)ccc21` [Example 30, 5-chloro-2-(1-ethyl-5-methoxy-1H-imidazo[4,5-b]pyridin-2-yl)-3-methylphenol] showed an IC50 [1] of 100 to 1000 nM.
`COc1nc2nc(-c3c(C)cc(C(F)(F)F)cc3O)n(C)c2cc1C(C)(C)O` [Example 57, 2-[6-(1-hydroxy-1-methyl-ethyl)-5-methoxy-1-methyl-imidazo[4,5-b]pyridin-2-yl]-3-methyl-5-(trifluoromethyl)phenol] gave an IC50 [1] of 100 to 1000 nM.
Work on `Cn1c(-c2ccc(Cl)cc2O)nc2nc(C(F)(F)F)ccc21` [Example 49, 5-chloro-2-(1-methyl-5-(trifluoromethyl)-1H-imidazo[4,5-b]pyridin-2-yl)phenol] yielded an IC50 [1] of 100 to 1000 nM.
`Cc1cc(Cl)cc(O)c1-c1nc2nc(N3CCOCC3)cnc2[nH]1` [Example 73, 5-chloro-3-methyl-2-(5-morpholino-1H-imidazo[4,5-b]pyrazin-2-yl)phenol] gave an IC50 [1] of 100 to 1000 nM.
`Cc1cc(Cl)cc(O)c1-c1nc2nc(N3CCC4CCN(C)CC43)cnc2n1C` (racemic) [Example 76, 5-chloro-3-methyl-2-[1-methyl-5-(6-methyl-3,3a,4,5,7,7a-hexahydro-2H-pyrrolo[2,3-c]pyridin-1-yl)imidazo[4,5-b]pyrazin-2-yl]phenol] was tested, and the IC50 [1] was less than 100 nM.
